Source: ChEMBL document CHEMBL1287701, “Substituted N-{3-[(1,1-dioxido-1,2-benzothiazol-3-yl)(phenyl)amino]propyl}benzamide analogs as potent Kv1.3 ion channel blockers. Part 2” (Bioorg Med Chem Lett, 2010)
In brackets after ≈: the same amount, converted by molar mass.

Assays:
[1] = biological target: Potassium voltage-gated channel subfamily A member 3 (Homo sapiens, UniProt P22001); assay: Inhibition of human Kv1.3 ion channel expressed in CGE22 cells; type: cell-based
[2] = Half life in rat liver microsome; type: ADME; details: liver microsomes
[3] = biological target: Potassium voltage-gated channel subfamily A member 5 (Homo sapiens, UniProt P22460); assay: Inhibition of human Kv1.5 ion channel expressed in CHO K1 cells; type: cell-based
Rattus norvegicus = assay: Dose normalised AUC in rat at 10 mg/kg, po; type: ADME, organism-based; design: dose 10 mg/kg, route oral; details: in vivo
[4] = Cmax in rat at 10 mg/kg, po; type: ADME, organism-based; design: dose 10 mg/kg, route oral; details: in vivo
[5] = Aqueous solubility of compound by chemiluminescent nitrogen detection analysis; type: physicochemical

Potassium voltage-gated channel subfamily A member 5, sequence (P22460 whole entry): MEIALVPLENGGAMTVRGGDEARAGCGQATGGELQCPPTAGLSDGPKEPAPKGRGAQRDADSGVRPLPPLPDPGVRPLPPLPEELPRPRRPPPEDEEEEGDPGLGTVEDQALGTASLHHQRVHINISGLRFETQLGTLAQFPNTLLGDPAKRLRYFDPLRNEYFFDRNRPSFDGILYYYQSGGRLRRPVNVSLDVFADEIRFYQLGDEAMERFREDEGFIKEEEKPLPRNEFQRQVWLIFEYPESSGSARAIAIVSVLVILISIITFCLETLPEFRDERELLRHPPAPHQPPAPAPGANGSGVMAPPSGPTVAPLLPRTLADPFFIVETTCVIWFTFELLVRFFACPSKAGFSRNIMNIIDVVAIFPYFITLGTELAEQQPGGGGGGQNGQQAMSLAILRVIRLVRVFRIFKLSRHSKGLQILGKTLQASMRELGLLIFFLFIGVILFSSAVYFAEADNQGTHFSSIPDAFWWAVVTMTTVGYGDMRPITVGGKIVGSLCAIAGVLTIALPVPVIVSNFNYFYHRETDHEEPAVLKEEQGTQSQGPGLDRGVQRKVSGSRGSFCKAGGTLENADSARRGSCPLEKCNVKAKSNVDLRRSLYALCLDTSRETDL
Potassium voltage-gated channel subfamily A member 3, sequence (P22001 whole entry): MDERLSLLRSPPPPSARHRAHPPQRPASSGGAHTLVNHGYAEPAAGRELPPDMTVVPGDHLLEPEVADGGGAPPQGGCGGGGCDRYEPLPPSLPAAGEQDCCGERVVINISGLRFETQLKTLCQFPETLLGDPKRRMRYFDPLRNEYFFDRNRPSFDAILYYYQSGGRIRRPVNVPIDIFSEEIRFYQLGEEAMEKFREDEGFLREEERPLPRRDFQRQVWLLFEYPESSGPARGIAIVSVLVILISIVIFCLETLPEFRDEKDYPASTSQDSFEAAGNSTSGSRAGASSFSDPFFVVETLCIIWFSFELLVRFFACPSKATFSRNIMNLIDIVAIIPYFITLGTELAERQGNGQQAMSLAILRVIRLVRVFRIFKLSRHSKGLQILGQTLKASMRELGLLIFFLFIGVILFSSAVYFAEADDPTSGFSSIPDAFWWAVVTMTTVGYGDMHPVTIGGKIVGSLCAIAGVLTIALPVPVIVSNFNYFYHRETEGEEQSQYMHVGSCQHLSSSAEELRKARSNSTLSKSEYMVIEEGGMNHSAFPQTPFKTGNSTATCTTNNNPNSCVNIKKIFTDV

Compound	IC50 [1]	IC50 [3]	other results
CC(C)(CNC(=O)C1CCOCC1)CN(C1=NS(=O)(=O)c2ccccc21)c1ccccc1	0.7 µM	–	half-life [2]: 32 min
CC(C)(CNC(=O)c1ncccc1O)CN(C1=NS(=O)(=O)c2cc(F)ccc21)c1ccccc1	0.32 µM	0.46 µM	–
O=c1ccc2c(OCCCCOc3ccccc3)c3ccoc3cc2o1	–	3.45 µM	–
CN1CCCCC1C(=O)NCC(C)(C)CN(C1=NS(=O)(=O)c2cc(F)ccc21)c1ccccc1 (configuration not stated)	3.4 µM	2.88 µM	–
CN1CCC(C(=O)NCC(C)(C)CN(C2=NS(=O)(=O)c3cc(F)ccc32)c2ccccc2)CC1	> 50 µM	> 50 µM	–
CC(C)(CNC(=O)c1cccnc1O)CN(C1=NS(=O)(=O)c2cc(F)ccc21)c1ccccc1	10.1 µM	9.06 µM	–
CC(C)(CNC(=O)c1cccc(C(F)(F)F)c1)CN(C1=NS(=O)(=O)c2ccccc21)c1ccccc1	0.56 µM	–	half-life [2]: < 15 min
CC(CNC(=O)c1ccc(F)cc1)CN(C1=NS(=O)(=O)c2ccccc21)c1ccccc1 (configuration not stated)	0.44 µM	–	half-life [2]: 22 min
COc1cnccc1C(=O)NCC(C)(C)CN(C1=NS(=O)(=O)c2cc(F)ccc21)c1ccccc1	0.2 µM	0.37 µM	–
CC(C)(CNC(=O)C1(O)CCOCC1)CN(C1=NS(=O)(=O)c2cc(F)ccc21)c1ccccc1	1.07 µM	1.98 µM	–
CC(C)(CNC(=O)c1cnccn1)CN(C1=NS(=O)(=O)c2cc(F)ccc21)c1ccccc1	0.23 µM	0.35 µM	–
CC(C)(CNC(=O)C1(O)CCC(F)(F)CC1)CN(C1=NS(=O)(=O)c2cc(F)ccc21)c1ccccc1	0.39 µM	0.63 µM	–
CC(C)(CNC(=O)N1CCOCC1)CN(C1=NS(=O)(=O)c2cc(F)ccc21)c1ccccc1	0.34 µM	–	half-life [2]: 60 min
CC(C)(CNC(=O)N1CCOCC1)CN(C1=NS(=O)(=O)c2ccccc21)c1ccccc1	0.47 µM	–	half-life [2]: 30 min
CC(C)(CNC(=O)C1(C#N)CCOCC1)CN(C1=NS(=O)(=O)c2cc(F)ccc21)c1ccccc1	0.33 µM	0.56 µM	–
CC(C)(CNC(=O)c1ccc(F)cc1)CN(C1=NS(=O)(=O)c2ccccc21)c1ccccc1	0.16 µM	–	half-life [2]: < 15 min
CC(C)(CNC(=O)c1ccncc1O)CN(C1=NS(=O)(=O)c2cc(F)ccc21)c1ccccc1	> 50 µM	> 50 µM	–
CC(C)(CNC(=O)C1(O)CCCCC1)CN(C1=NS(=O)(=O)c2cc(F)ccc21)c1ccccc1	0.35 µM	0.45 µM	–
CC(C)(CNC(=O)c1cccc(C(F)(F)F)c1)CN(C1=NS(=O)(=O)c2cc(F)ccc21)c1ccccc1	0.7 µM	–	half-life [2]: 39 min
CC(C)(CNC(=O)C1CCOCC1)CN(C1=NS(=O)(=O)c2cc(F)ccc21)c1ccccc1	0.53 µM	–	half-life [2]: 26 min
CN1CCCC(C(=O)NCC(C)(C)CN(C2=NS(=O)(=O)c3cc(F)ccc32)c2ccccc2)C1 (configuration not stated)	12 µM	13.7 µM	–
CC(C)(CNC(=O)C1(C(F)(F)F)CCC1)CN(C1=NS(=O)(=O)c2cc(F)ccc21)c1ccccc1	0.09 µM	0.32 µM	–
CC(C)(CNC(=O)C1CCOCC1(C)C)CN(C1=NS(=O)(=O)c2cc(F)ccc21)c1ccccc1 (configuration not stated)	0.84 µM	0.96 µM	–
CC(C)(CNC(=O)c1cc2ccccc2o1)CN(C1=NS(=O)(=O)c2cc(F)ccc21)c1ccccc1	> 50 µM	> 50 µM	–
CC(C)(CNC(=O)C1CCCCN1)CN(C1=NS(=O)(=O)c2cc(F)ccc21)c1ccccc1 (configuration not stated)	5.9 µM	5.97 µM	–
CC(C)(CNC(=O)C1CCCNC1)CN(C1=NS(=O)(=O)c2cc(F)ccc21)c1ccccc1 (configuration not stated)	> 50 µM	> 50 µM	–
CC(C)(CNC(=O)CC1CCCCO1)CN(C1=NS(=O)(=O)c2cc(F)ccc21)c1ccccc1 (configuration not stated)	1.35 µM	0.78 µM	–
CC(C)(CNC(=O)C1COCCN1)CN(C1=NS(=O)(=O)c2cc(F)ccc21)c1ccccc1 (configuration not stated)	1.26 µM	2 µM	–
O=C(NCCCN(C1=NS(=O)(=O)c2ccccc21)c1ccccc1)c1ccc(F)cc1	–	–	half-life [2]: < 15 min
CC(C)(CNC(=O)C1CCCCO1)CN(C1=NS(=O)(=O)c2cc(F)ccc21)c1ccccc1 (configuration not stated)	0.64 µM	0.44 µM	–

More lines, main results first:

IC50 [1]	IC50 [3]	Compound	other results
0.2 µM	0.41 µM	CC(C)(CNC(=O)c1ccco1)CN(C1=NS(=O)(=O)c2cc(F)ccc21)c1ccccc1	–
0.53 µM	0.79 µM	CC(C)(CNC(=O)C1(N)CC1)CN(C1=NS(=O)(=O)c2cc(F)ccc21)c1ccccc1	–
0.35 µM	0.54 µM	CC(C)(CNC(=O)C1(C#N)CC1)CN(C1=NS(=O)(=O)c2cc(F)ccc21)c1ccccc1	AUC (Rattus norvegicus): 630 ng·kg·h/mg/mL; Cmax [4]: 900 ng/mL; solubility [5]: 304 µM (≈ 138 µg/mL)
0.82 µM	1.35 µM	CC(C)(CNC(=O)C1(O)CC1)CN(C1=NS(=O)(=O)c2cc(F)ccc21)c1ccccc1	–
0.28 µM	0.49 µM	CC(C)(CNC(=O)C1CC1)CN(C1=NS(=O)(=O)c2cc(F)ccc21)c1ccccc1	–
1.18 µM	1.18 µM	CC(=O)NCC(C)(C)CN(C1=NS(=O)(=O)c2cc(F)ccc21)c1ccccc1	–
0.36 µM	0.83 µM	CC(C)(CNC(=O)C1CCCO1)CN(C1=NS(=O)(=O)c2cc(F)ccc21)c1ccccc1 (configuration not stated)	–
2.56 µM	1.39 µM	CN1CCCC1C(=O)NCC(C)(C)CN(C1=NS(=O)(=O)c2cc(F)ccc21)c1ccccc1 (configuration not stated)	–
0.08 µM	0.24 µM	CC(C)(CNC(=O)C1(C(F)(F)F)CC1)CN(C1=NS(=O)(=O)c2cc(F)ccc21)c1ccccc1	–
0.15 µM	0.36 µM	CC(C)(CNC(=O)c1ccoc1)CN(C1=NS(=O)(=O)c2cc(F)ccc21)c1ccccc1	–
0.25 µM	0.48 µM	CC(C)(CNC(=O)C(C)(O)C(F)(F)F)CN(C1=NS(=O)(=O)c2cc(F)ccc21)c1ccccc1 (configuration not stated)	AUC (Rattus norvegicus): 1630 ng·kg·h/mg/mL; Cmax [4]: 2100 ng/mL; solubility [5]: 52 µM (≈ 26.1 µg/mL)
0.55 µM	0.52 µM	Cn1ccnc1C(=O)NCC(C)(C)CN(C1=NS(=O)(=O)c2cc(F)ccc21)c1ccccc1	–
0.2 µM	0.37 µM	CC(C)(CNC(=O)C1(C)CC1)CN(C1=NS(=O)(=O)c2cc(F)ccc21)c1ccccc1	–
3.08 µM	2.22 µM	CNC(=O)NCC(C)(C)CN(C1=NS(=O)(=O)c2cc(F)ccc21)c1ccccc1	–
13.1 µM	13.9 µM	Cn1cnc(C(=O)NCC(C)(C)CN(C2=NS(=O)(=O)c3cc(F)ccc32)c2ccccc2)c1	–
0.15 µM	0.27 µM	CC(C)(CNC(=O)CC(F)(F)F)CN(C1=NS(=O)(=O)c2cc(F)ccc21)c1ccccc1	–
0.3 µM	0.34 µM	CC(C)(CNC(=O)N1CCCC1)CN(C1=NS(=O)(=O)c2cc(F)ccc21)c1ccccc1	–
0.75 µM	0.9 µM	CC(C)(CNC(=O)c1cocn1)CN(C1=NS(=O)(=O)c2cc(F)ccc21)c1ccccc1	–
> 50 µM	> 50 µM	CC(C)(CNC(=O)C1(C(=O)O)CC1)CN(C1=NS(=O)(=O)c2cc(F)ccc21)c1ccccc1	–
0.54 µM	0.29 µM	CC(C)(CNC(=O)c1cscn1)CN(C1=NS(=O)(=O)c2cc(F)ccc21)c1ccccc1	–
0.47 µM	0.73 µM	CC(C)(CNC(=O)C1(O)CCCC1)CN(C1=NS(=O)(=O)c2cc(F)ccc21)c1ccccc1	–
1.15 µM	1.32 µM	CC(C)(CNC(=O)c1cc[nH]c1)CN(C1=NS(=O)(=O)c2cc(F)ccc21)c1ccccc1	–
1.51 µM	2.64 µM	CC(C)(CNC(=O)C1(N)CCCC1)CN(C1=NS(=O)(=O)c2cc(F)ccc21)c1ccccc1	–
0.14 µM	0.32 µM	CC(C)(CNC(=O)C1CC1(F)F)CN(C1=NS(=O)(=O)c2cc(F)ccc21)c1ccccc1 (configuration not stated)	–
